For 5 compounds, IC50 results are on record in BindingDB's records for doi:10.1021/jm070849r (Pfizer, 2008).

This test concerns the target T1, 3-hydroxy-3-methylglutaryl-coenzyme A reductase (Rattus norvegicus, UniProt P51639).
T1 sequence (P51639 whole entry): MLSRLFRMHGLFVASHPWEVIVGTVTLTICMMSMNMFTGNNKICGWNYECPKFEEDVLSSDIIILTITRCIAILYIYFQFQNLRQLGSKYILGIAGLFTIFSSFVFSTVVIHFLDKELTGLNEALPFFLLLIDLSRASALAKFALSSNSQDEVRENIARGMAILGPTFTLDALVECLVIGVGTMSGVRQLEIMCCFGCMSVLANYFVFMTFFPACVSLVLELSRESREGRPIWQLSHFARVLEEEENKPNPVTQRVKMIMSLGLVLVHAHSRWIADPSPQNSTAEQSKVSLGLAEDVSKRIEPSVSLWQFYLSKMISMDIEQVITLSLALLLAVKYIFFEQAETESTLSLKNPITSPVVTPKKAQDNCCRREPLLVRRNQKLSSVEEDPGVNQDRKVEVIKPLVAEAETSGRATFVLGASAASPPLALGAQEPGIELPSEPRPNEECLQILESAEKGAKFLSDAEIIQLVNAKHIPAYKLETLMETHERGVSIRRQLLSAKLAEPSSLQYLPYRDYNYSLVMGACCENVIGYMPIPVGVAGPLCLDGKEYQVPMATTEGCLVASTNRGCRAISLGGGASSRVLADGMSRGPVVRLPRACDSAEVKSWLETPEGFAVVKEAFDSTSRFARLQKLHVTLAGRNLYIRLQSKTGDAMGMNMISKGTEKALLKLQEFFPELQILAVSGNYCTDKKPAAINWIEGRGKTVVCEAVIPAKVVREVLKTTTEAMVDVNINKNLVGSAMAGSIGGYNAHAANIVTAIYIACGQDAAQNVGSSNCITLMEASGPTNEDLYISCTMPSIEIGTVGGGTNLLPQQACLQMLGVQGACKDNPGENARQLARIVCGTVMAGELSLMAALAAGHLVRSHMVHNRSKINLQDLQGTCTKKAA
Nature of the test: HMG-CoA Reductase Enzyme Assay and Inhibition of Cellular Cholesterol Synthesis Assay. The conditions noted are these: pH 7.2; 37 °C. On the procedure:
Enzyme Assay for HMG-CoA reductase was based on the conversion of isotopically labeled HMG-CoA to mevalonic acid using rat liver microsomes as enzyme source. The product, [14C]-mevalonic acid was lactonized and separated from excess substrate via an anion ion exchange resin column, and radioactivity was counted on a scintillation counter. The IC50 values were calculated with GraphPad software (Prism). The cellular assay EC50/IC50 values were obtained from inhibition of cholesterol synthesis in rat hepatocyte.
Regarding `Cc1ccc(CN(C)C(=O)c2nn(-c3ccc(F)cc3)c(CC[C@@H](O)C[C@@H](O)CC(=O)O)c2C(C)C)cc1` [sodium (3R,5R)-7-[1-(4-fluorophenyl)-3-{methyl[(4-methylphenyl)methyl]carbamoyl}-4-(propan-2-yl)-1H-pyrazol-5-yl]-3,5-dihydroxyheptanoate], the IC50 stood at 1.8 nM. On to `CC(C)c1c(C(=O)NCc2ccc(C(=O)N(C)C)cc2)nn(-c2ccc(F)cc2)c1CC[C@@H](O)C[C@@H](O)CC(=O)O` [sodium (3R,5R)-7-[3-({[4-(dimethylcarbamoyl)phenyl]methyl}carbamoyl)-1-(4-fluorophenyl)-4-(propan-2-yl)-1H-pyrazol-5-yl]-3,5-dihydroxyheptanoate], for which inhibition was half-maximal at 23 nM (IC50). Under `CCN(Cc1ccccc1)C(=O)c1nn(-c2ccc(F)cc2)c(CC[C@@H](O)C[C@@H](O)CC(=O)O)c1C(C)C` [sodium (3R,5R)-7-{3-[benzyl(ethyl)carbamoyl]-1-(4-fluorophenyl)-4-(propan-2-yl)-1H-pyrazol-5-yl}-3,5-dihydroxyheptanoate] stands 5.5 nM; under `CC(C)c1c(C(=O)N(C)Cc2ccccc2)nn(-c2ccc(F)cc2)c1CC[C@@H](O)C[C@@H](O)CC(=O)O` [sodium (3R,5R)-7-{3-[benzyl(methyl)carbamoyl]-1-(4-fluorophenyl)-4-(propan-2-yl)-1H-pyrazol-5-yl}-3,5-dihydroxyheptanoate], 0.2 nM; under `CC(C)c1c(C(=O)N(Cc2ccccc2)C(C)C)nn(-c2ccc(F)cc2)c1CC[C@@H](O)C[C@@H](O)CC(=O)O` [sodium (3R,5R)-7-{3-[benzyl(propan-2-yl)carbamoyl]-1-(4-fluorophenyl)-4-(propan-2-yl)-1H-pyrazol-5-yl}-3,5-dihydroxyheptanoate], 10 nM.

As a reminder, the IC50 is the point on the concentration scale where inhibition reaches its midpoint.
